Measured values: ChEMBL document CHEMBL1201862, “PubChem BioAssay data set” (2004)
The source made the active and inactive calls.

Key:
[1] = A cytotoxicity screen of small molecule inhibitors of the PhoP region in Salmonella typhi identified in the primary screen. [Related pubchem assays: 1850, 1864, 1985 ]; type: functional
ORF 73 = ORF 73 (Human herpesvirus 8, UniProt O40947); assay: inhibitors of C-LANA binding to LBS DNA, dose response, biochemical, fluorescence polarization, cherry-picked samples (AID 504725); design: species or system Human gammaherpesvirus 8;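 note: fluorescence polarization of a labeled DNA duplex reporting LANA DNA binding; potency is for inhibitors that block LANA binding to the DNA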
NS3 = NS3 (Hepatitis C virus, UniProt A3EZJ3); assay: PubChem AID 2173; design: species or system Hepacivirus hominis
[2] = target: Induced myeloid leukemia cell differentiation protein Mcl-1 (Homo sapiens, UniProt Q07820); type: functional
[3] = inhibitors of Bluetongue virus cytopathic effect, confirmation, arbovirus, BSR cells (AID 1250); type: functional;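 note: protection from viral cytopathic effect measured as cell viability by ATP luminescence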
[4] = target: T1, Voltage-gated N-type calcium channel alpha-1B subunit/Amyloid beta A4 precursor protein-binding family A member 1 (Homo sapiens, UniProt Q00975+Q02410); type: protein assay
[5] = target: T1, Voltage-gated N-type calcium channel alpha-1B subunit/Amyloid beta A4 precursor protein-binding family A member 1; type: protein assay; remark: listed apart in the source
[6] = target: Eukaryotic translation initiation factor 4E (Mus musculus, UniProt P63073); assay: eIF4E–eIF4G protein interaction inhibitors, dose response, biochemical, TR-FRET (AID 855); type: functional;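 note: potency for disrupting eIF4E binding to eIF4GI seen as loss of FRET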
Cytochrome P450 2C9 = Cytochrome P450 2C9 (Homo sapiens, UniProt P11712); conditions: Potency
Cytochrome P450 2C19 = Cytochrome P450 2C19 (Homo sapiens, UniProt P33261); assay: qHTS Assay for Inhibitors and Substrates of Cytochrome P450 2C19. [Related pubchem assays: 410 ]; type: ADME; conditions: read-out: Potency
Cytochrome P450 3A4 = Cytochrome P450 3A4 (Homo sapiens, UniProt P08684); conditions: Potency;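 note: confirmatory qHTS run detecting inhibitors and substrates of CYP3A4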
[7] = target: Melanin-concentrating hormone receptor 1 (Homo sapiens, UniProt Q99705); assay: Fluorescence-based counterscreen for antagonists of the G-protein coupled receptor 7 (GPR7): cell-based high throughput dose response assay to identify antagonists of the melanin-concentrating hormone receptor 1 (MCHR1).; type: functional
Paired box protein Pax-8 = Paired box protein Pax-8 (Homo sapiens, UniProt Q06710); assay: inhibitors of PAX8-driven TPO luciferase reporter, dose response, RMG-I cells, cherry-pick (AID 687027); type: functional, cell-based;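 note: luciferase reporter driven by Pax8 target thyroperoxidase promoter measured by SteadyGlo luminescence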
[8] = MDA-MB-231 cell growth inhibition, dose response, cytotoxicity control for RAD54 inhibitor project, CellTiter-Glo luminescence, cherry-pick (AID 651692); type: functional, cell-based
[9] = Counterscreen for activators of the function of SWI/SNF related, matrix associated, actin dependent regulator of chromatin, subfamily a, member 2 (SMARCA2, BRM): Luminescence-based cell-based high throughput dose response assay to identify non-selective compounds using the VP16 reporter assay.; type: functional
[10] = non-specific cell cytotoxicity, dose response, cytotoxicity control for PAX8 inhibitor project, plate reader, dry powder samples (AID 743021); type: functional, cell-based
Beta Lactamase = Beta Lactamase (Pseudomonas aeruginosa, UniProt Q932Y6); assay: beta-lactamase reporter inhibitor potency, dose response, artefact control for TLR9-MyD88 binding inhibitor project, BLA reporter cells, FRET fluorescence (AID 588341); type: cell-based;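 note: cell based assay in CHO-K1 cells stably expressing beta-lactamase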
CHO = assay: cytotoxicity in TLR9-MyD88 CHO cells, dose response, cytotoxicity control for TLR9-MyD88 binding inhibitor project, cell-based, luminescence (AID 588339); type: functional, hamster; conditions: Cricetulus griseus;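 note: CHO cells stably coexpressing TLR9 and MyD88 fusions from primary screen; compound exposure lasted 48 hours before viability readout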
[11] = target: T2, DNA repair and recombination protein RAD54-like (Homo sapiens, UniProt Q92698); assay: inhibitors of human RAD54 branch migration, confirmation, biochemical, fluorescence, cherry-picked samples, dose series (AID 651657); type: functional
T2 sequence (Q92698 whole entry): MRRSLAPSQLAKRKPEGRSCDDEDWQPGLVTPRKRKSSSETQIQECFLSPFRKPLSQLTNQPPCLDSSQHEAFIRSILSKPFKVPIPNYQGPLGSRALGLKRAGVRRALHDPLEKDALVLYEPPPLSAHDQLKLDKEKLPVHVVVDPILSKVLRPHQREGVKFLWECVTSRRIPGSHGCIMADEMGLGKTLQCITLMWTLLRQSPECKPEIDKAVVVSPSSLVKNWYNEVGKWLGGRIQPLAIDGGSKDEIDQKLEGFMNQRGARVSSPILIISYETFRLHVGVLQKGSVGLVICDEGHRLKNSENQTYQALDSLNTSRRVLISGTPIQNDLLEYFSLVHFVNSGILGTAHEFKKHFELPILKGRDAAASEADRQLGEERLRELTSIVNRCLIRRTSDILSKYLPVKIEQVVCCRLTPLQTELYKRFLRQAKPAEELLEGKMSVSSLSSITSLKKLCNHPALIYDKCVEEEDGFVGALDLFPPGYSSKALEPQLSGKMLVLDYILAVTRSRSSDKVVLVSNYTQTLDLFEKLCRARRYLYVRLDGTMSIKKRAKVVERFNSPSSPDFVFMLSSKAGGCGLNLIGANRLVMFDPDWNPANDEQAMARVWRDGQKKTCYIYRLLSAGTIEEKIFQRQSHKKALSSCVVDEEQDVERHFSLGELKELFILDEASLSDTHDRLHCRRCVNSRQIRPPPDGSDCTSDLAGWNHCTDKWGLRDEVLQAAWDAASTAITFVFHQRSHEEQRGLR

INS1 = assay: beta cell apoptosis inhibitors, cytokine rescue, dose response, luminescence, retest (AID 449756); type: functional, cell-based; conditions: Rattus norvegicus;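 note: cell death triggered by IL-1 beta plus TNF-alpha plus IFN-gamma mixture; protective hits raise ATP signal compared with cytokine alone wells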
[12] = target: Neurotensin receptor type 1 (Homo sapiens, UniProt P30989); type: functional;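 note: Image-based confirmatory dose-response assay measuring agonist activity at NTR1; NTR1-expressing U2OS osteosarcoma cells imaged for beta-arrestin GFP spot formation; agonist potency where compounds increase beta-arrestin recruitment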
[13] = target: SWI/SNF-related matrix-associated actin-dependent regulator of chromatin subfamily A member 2 (Homo sapiens, UniProt P51531); assay: Luminescence-based cell-based high throughput dose response assay to identify activators of the function of SWI/SNF related, matrix associated, actin dependent regulator of chromatin, subfamily a, member 2 (SMARCA2, BRM).; type: functional
HeLa = assay: HeLa cell cytotoxicity, dose response, cytotoxicity control, 24 h, cherry-picked samples (AID 504726); type: functional, cell-based; conditions: Homo sapiens;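 note: potency for cytotoxicity as loss of luminescence signal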
[14] = target: DNA dC->dU-editing enzyme APOBEC-3G (Homo sapiens, UniProt Q9HC16); assay: Dose Response confirmation of small molecule APOBEC3G DNA Deaminase Inhibitors via a fluorescence-based single-stranded DNA deaminase assay. [Related pubchem assays (depositor defined):AID493012, AID493028]; type: functional
[15] = target: DNA dC->dU-editing enzyme APOBEC-3A (Homo sapiens, UniProt P31941); assay: APOBEC3A DNA deaminase inhibitors, dose response, biochemical (AID 504722); type: functional

Sequence of Cytochrome P450 2C9 (P11712 whole entry): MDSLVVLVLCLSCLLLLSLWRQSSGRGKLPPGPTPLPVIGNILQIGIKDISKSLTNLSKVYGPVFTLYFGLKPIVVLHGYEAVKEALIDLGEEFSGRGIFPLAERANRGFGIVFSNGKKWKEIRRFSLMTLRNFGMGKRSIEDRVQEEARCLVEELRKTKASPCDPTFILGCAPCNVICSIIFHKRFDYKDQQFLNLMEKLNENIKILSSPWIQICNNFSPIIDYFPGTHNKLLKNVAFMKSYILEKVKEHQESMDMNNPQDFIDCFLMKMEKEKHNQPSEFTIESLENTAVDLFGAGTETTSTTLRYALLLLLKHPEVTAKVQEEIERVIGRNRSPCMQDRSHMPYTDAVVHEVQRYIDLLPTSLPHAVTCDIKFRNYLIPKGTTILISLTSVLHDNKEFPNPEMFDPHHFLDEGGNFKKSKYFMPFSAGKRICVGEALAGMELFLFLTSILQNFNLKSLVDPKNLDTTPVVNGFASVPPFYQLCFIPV
T1 sequence (Q00975 whole entry): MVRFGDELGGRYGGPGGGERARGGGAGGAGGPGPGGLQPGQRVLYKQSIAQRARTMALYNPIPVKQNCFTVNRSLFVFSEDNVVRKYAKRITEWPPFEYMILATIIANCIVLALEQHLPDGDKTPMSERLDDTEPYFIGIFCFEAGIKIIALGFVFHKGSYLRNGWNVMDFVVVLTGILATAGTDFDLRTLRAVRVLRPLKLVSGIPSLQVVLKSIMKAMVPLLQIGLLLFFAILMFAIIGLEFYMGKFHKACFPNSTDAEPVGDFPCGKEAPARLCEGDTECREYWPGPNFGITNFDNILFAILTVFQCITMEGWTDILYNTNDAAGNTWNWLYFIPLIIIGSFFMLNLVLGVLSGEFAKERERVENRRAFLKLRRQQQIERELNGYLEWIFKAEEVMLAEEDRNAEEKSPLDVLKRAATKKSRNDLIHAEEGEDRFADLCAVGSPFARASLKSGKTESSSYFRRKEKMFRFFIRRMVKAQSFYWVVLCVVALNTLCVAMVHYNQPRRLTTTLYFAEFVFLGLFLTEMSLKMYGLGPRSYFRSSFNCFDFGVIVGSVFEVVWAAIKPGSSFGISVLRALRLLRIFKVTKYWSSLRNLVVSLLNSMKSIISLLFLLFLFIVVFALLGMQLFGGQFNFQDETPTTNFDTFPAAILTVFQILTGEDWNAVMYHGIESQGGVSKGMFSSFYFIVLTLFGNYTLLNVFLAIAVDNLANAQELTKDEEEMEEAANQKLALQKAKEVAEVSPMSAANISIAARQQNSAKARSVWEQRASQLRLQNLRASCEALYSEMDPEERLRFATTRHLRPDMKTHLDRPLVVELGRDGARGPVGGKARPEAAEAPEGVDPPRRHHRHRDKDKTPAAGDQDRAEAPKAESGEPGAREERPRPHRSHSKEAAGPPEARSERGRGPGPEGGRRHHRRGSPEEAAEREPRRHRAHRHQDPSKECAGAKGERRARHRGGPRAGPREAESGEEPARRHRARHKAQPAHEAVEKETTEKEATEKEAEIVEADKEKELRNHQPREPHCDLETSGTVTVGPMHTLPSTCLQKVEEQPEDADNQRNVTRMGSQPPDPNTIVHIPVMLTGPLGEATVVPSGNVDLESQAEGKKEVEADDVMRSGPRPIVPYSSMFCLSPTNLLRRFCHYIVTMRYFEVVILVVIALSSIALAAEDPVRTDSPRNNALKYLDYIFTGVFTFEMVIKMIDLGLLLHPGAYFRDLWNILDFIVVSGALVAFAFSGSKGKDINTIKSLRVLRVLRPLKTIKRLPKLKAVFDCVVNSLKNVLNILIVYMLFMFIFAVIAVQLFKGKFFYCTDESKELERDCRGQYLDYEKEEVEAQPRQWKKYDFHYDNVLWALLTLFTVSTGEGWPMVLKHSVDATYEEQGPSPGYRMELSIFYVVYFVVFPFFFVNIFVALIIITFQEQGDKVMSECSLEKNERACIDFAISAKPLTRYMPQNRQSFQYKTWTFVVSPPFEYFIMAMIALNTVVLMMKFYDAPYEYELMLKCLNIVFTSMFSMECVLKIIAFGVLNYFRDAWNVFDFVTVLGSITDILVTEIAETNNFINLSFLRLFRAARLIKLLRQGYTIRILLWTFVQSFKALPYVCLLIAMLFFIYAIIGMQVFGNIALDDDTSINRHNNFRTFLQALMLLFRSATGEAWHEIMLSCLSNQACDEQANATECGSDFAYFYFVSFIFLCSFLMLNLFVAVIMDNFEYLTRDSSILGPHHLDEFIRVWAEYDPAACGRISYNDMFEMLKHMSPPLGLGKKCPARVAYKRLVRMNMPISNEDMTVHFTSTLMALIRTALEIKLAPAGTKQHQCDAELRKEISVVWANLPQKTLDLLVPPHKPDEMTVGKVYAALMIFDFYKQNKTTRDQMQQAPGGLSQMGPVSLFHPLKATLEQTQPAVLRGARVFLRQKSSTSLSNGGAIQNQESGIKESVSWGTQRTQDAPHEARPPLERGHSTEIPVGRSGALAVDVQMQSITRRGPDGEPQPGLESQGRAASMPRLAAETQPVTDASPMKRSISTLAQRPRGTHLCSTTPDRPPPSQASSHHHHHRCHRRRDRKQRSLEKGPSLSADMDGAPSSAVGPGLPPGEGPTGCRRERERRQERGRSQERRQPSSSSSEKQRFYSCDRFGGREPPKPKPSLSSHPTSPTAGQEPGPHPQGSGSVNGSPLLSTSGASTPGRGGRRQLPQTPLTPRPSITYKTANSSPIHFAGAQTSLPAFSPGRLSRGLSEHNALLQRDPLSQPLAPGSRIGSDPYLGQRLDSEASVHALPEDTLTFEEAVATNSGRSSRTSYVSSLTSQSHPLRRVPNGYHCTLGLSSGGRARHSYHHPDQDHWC
T1 sequence (Q02410 whole entry): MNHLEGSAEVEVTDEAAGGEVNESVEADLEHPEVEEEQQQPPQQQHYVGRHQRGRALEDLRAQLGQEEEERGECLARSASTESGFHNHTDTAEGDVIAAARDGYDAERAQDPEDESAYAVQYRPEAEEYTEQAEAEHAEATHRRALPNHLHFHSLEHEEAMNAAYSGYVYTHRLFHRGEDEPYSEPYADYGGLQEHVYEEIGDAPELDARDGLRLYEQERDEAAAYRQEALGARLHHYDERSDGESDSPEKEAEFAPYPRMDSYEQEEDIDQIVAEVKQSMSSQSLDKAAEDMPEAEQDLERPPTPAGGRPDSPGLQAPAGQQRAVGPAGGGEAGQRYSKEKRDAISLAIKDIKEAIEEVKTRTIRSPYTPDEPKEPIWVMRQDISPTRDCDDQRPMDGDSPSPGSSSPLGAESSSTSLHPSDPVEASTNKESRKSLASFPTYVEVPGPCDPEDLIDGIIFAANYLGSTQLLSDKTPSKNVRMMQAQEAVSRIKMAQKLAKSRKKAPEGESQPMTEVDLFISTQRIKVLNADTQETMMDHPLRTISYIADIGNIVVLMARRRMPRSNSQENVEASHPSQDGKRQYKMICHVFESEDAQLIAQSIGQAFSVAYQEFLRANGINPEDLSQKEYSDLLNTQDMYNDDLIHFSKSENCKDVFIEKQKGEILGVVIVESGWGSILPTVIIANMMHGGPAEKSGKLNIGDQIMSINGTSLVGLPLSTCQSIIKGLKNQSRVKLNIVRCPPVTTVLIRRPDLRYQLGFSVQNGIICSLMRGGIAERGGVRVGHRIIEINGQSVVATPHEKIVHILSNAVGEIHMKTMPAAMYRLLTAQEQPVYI
Sequence of NS3 (A3EZJ3 whole entry): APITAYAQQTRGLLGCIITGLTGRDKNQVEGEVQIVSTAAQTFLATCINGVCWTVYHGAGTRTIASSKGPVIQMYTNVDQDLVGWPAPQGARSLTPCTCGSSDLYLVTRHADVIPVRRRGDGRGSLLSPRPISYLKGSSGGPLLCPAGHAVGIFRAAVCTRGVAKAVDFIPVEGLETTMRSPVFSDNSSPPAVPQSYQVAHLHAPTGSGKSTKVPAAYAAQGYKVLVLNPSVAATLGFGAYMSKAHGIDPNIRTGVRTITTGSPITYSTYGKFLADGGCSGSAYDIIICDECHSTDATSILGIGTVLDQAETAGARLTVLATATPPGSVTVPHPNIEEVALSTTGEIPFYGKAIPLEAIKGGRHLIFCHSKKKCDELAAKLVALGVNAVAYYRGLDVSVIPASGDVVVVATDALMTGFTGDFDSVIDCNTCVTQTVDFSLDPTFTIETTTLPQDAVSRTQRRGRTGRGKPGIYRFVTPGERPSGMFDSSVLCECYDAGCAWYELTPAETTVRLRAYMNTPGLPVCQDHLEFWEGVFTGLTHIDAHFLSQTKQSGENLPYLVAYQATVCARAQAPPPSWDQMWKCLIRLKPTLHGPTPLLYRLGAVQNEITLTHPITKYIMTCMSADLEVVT
Sequence of Beta Lactamase (Q932Y6 whole entry, the tested form may be a part): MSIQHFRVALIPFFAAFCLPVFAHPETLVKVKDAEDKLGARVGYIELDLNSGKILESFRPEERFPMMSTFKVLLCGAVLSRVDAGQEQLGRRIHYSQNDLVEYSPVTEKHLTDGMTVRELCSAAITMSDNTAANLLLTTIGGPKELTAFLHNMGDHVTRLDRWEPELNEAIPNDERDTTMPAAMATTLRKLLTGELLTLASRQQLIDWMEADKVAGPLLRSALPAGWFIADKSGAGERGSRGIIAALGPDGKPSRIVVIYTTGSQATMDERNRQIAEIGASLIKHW
Sequence of DNA dC->dU-editing enzyme APOBEC-3G (Q9HC16 whole entry): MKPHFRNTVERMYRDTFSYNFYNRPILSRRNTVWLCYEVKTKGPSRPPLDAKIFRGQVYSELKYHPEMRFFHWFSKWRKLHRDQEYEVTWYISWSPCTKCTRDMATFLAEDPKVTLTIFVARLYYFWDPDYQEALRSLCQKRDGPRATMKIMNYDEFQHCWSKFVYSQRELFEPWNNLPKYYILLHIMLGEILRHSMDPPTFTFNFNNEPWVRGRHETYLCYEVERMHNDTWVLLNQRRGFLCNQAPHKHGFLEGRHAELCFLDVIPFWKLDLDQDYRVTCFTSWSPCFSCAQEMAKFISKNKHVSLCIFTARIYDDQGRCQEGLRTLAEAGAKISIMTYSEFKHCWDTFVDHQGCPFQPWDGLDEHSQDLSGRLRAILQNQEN

With NC1=NC2(CCCCC2)n2c(nc3ccccc32)N1 the EC50 [1] was > 50 µM (active).
In the case of O=c1ccc2cc3c4c(c2o1)CCCN4CCC3, the AC50 (ORF 73) is reported as 12.6 µM (active).
With Cc1ccc(-n2cccc2/C=C2\C(=N)N3N=C(c4ccco4)SC3=NC2=O)cc1 the IC50 (NS3) was 5.31 µM (active), the IC50 [2] was 1.7 µM (active) and the IC50 [3] was 26 µM (active). For the same compound, the IC50 [4] was 8.99 µM (active), the IC50 [5] was > 50 µM (inactive) and the IC50 [6] was 50 µM (inactive).
With CC(=O)c1ccc(OCc2ccccc2)c(C)c1O the AC50 (Cytochrome P450 2C9) was 2 µM (inconclusive).
With COc1ccc(OC2C=CC(C#Cc3ccc(C(C)(C)C)cc3)OC2CO)cc1 (configuration not stated) the AC50 (Cytochrome P450 2C19) was 2.51 µM (inconclusive), the AC50 (Cytochrome P450 3A4) was 3.98 µM (inconclusive) and the AC50 (Cytochrome P450 2C9) was 0.398 µM (inconclusive).
For COc1cccc(CC2(CO)CCCN(Cc3c(C)cc(C)cc3-n3cccn3)C2)c1 (configuration not stated), the IC50 [7] was 12.6 µM (not active).
In the case of COc1ccc(Cn2cc3c(-c4ccc(F)cc4)nnc-3c3cc(OC)c(OC)cc32)cc1, the AC50 (Paired box protein Pax-8) is reported as 12.9 µM (active), the AC50 [8] is reported as 15.3 µM (active) and the EC50 [9] is reported as > 91.2 µM (inactive). For the same compound, the AC50 [10] was 29.5 µM (active), the IC50 (Beta Lactamase) was 5.58 µM (active) and the IC50 (CHO) was 11.9 µM (inactive). For the same compound, the AC50 [11] was 7.21 µM (active), the AC50 (INS1) was 6.94 µM (active) and the EC50 [12] was 5.72 µM (active). The EC50 [13] was > 91.2 µM (inactive).
In the case of O=S(=O)(Nc1ncccn1)c1ccc(NC(=S)Nc2cccc(Cl)c2)cc1, the EC50 [1] is reported as > 50 µM (active).
In the case of CC(Sc1ncccn1)C(=O)NNC(=O)c1cccc(Cl)c1 (configuration not stated), the AC50 (HeLa) is reported as 46.6 µM (active).
In the case of Sc1nnc(-c2cccnc2)n1/N=C/C=C/c1ccccc1, the IC50 [14] is reported as 2.33 µM (active) and the IC50 [15] is reported as > 100 µM (inactive).
